Key:
[1] = test system: idiopathic pulmonary fibrosis; settings: as compared with placebo; Martinez F. J. et al., N Engl J Med 2014; cited from earlier work
[2] = test system: non-specific interstitial pneumonitis (NSIP); experiment: Inventor's own treatment course for non-specific interstitial pneumonitis, tracked by CRP level and symptoms; format: in vivo, human; settings: tapered-down doses of prednisone from 30-40 mg/day
Description: NSIP is a sub-type of Idiopathic Pulmonary Fibrosis (IPF), comprising a group of interstitial pneumonias. […] Following the NSIP diagnosis, my tapered prednisone treatments were supplemented with 100 mg/day azathioprine and, subsequently, with 1800 mg/day N-Acetyl Cysteine (NAC).

CC(=O)N[C@@H](CS)C(=O)O [acetylcysteine, N-Acetyl Cysteine]
preservation of FVC [i.e., lung capacity] [1]: no significant benefit

C[C@]12C=CC(=O)C=C1CC[C@@H]1[C@@H]2C(=O)C[C@@]2(C)[C@H]1CC[C@]2(O)C(=O)CO [prednisone]
symptoms (dry cough, dyspnea, fever) [2]: continued symptoms to worsen
systemic inflammation as measured by CRP level ([2]; eventually approaching and exceeding levels in the teens of mg/l): continued to worsen

From patent US10052336B2, “Pulmonary interstitial pneumonia treatment” (priority 2012, dated 2018)
